# What was measured:
# Assay type in all cases: toxicity, cell-based
# Fibroblast = test: Incucyte cell viability with human fibroblast; conditions: 10 µM, compound concentration 10 uM
# HEK-293T = test: Incucyte cell viability with HEK293T; conditions: human, 10 µM, compound concentration 10 uM
# U2OS = test: Incucyte cell viability with U2OS; conditions: human, 10 µM, compound concentration 10 uM
# Note: unitless GR value; below 1 slowed growth and below 0 cell loss.
Compound,"Growth Rate (Fibroblast; 0 h, replicate number 2)","Growth Rate (Fibroblast; 6 h, replicate number 1)","Growth Rate (Fibroblast; 18 h, replicate number 2)","Growth Rate (Fibroblast; 24 h, replicate number 1)","Growth Rate (Fibroblast; 24 h, replicate number 2)","Growth Rate (HEK-293T; 6 h, replicate number 1)","Growth Rate (HEK-293T; 6 h, replicate number 2)","Growth Rate (HEK-293T; 12 h, replicate number 2)","Growth Rate (HEK-293T; 18 h, replicate number 1)","Growth Rate (HEK-293T; 18 h, replicate number 2)","Growth Rate (HEK-293T; 24 h, replicate number 1)","Growth Rate (HEK-293T; 24 h, replicate number 2)","Growth Rate (U2OS; 6 h, replicate number 2)","Growth Rate (U2OS; 12 h, replicate number 1)","Growth Rate (U2OS; 12 h, replicate number 2)","Growth Rate (U2OS; 18 h, replicate number 1)","Growth Rate (U2OS; 18 h, replicate number 2)","Growth Rate (U2OS; 24 h, replicate number 2)","Growth Rate (Fibroblast; 12 h, replicate number 2)","Growth Rate (HEK-293T; 0 h, replicate number 1)",further results
COc1ccccc1-c1cc(Nc2cccc(CS(N)(=O)=O)c2)ncn1,-0.71,0.43,0.93,0.52,0.59,-0.26,-0.38,-0.15,0.16,0.21,0.38,0.33,0.46,0.51,0.46,0.22,0.43,0.49,–,–,"Growth Rate (Fibroblast; 12 h, replicate number 1): 0.63; Growth Rate (Fibroblast; 18 h, replicate number 1): 0.61; Growth Rate (HEK-293T; 12 h, replicate number 1): -0.07; Growth Rate (U2OS; 6 h, replicate number 1): 0.81; Growth Rate (U2OS; 24 h, replicate number 1): 0.46"
CC(C)CNc1nc(N2CCN(CC3CCCOC3)CC2)ncc1C(=O)NCc1ccccc1 (centres undefined),–,–,-0.81,-0.8,-0.64,0.81,0.95,–,–,–,–,–,0.72,0.83,0.63,0.99,0.76,0.79,-0.95,0.68,"Growth Rate (Fibroblast; 0 h, replicate number 1): -0.99; Growth Rate (Fibroblast; 6 h, replicate number 2): -1; Growth Rate (Fibroblast; 18 h, replicate number 1): -0.97; Growth Rate (U2OS; 6 h, replicate number 1): 0.3"
Cn1cc(-c2ccc(-c3cncc(Cl)c3N3CCC4(CCNC4=O)CC3)cc2)cn1,-0.3,0.61,0.87,0.49,0.8,0.13,0.24,0.63,0.34,0.67,0.5,0.67,–,0.59,–,0.96,–,–,–,–,"Growth Rate (Fibroblast; 12 h, replicate number 1): 0.75; Growth Rate (Fibroblast; 18 h, replicate number 1): 0.56; Growth Rate (HEK-293T; 0 h, replicate number 2): 0.95; Growth Rate (HEK-293T; 12 h, replicate number 1): 0.3; Growth Rate (U2OS; 0 h, replicate number 2): 0.82; Growth Rate (U2OS; 6 h, replicate number 1): 0.58"
Nc1ccc(-c2cnc(N)c(-c3ccc(Cl)cc3)c2)cn1,-0.5,-1,–,–,–,–,–,–,–,0.92,–,0.78,–,–,–,–,–,–,–,-0.26,"Growth Rate (Fibroblast; 0 h, replicate number 1): 0.71; Growth Rate (HEK-293T; 0 h, replicate number 2): -0.3; Growth Rate (U2OS; 0 h, replicate number 1): -0.24; Growth Rate (U2OS; 0 h, replicate number 2): -0.83"
CNc1ncc2cc(-c3ccc(-c4cccc(C)n4)cc3Cl)c(=O)n(C[C@H]3OC[C@H](N)CO3)c2n1,-0.44,–,0.14,0.41,0.16,–,–,–,–,–,–,–,0.37,–,0.83,–,0.77,0.53,0.19,-0.96,"Growth Rate (Fibroblast; 0 h, replicate number 1): 0.26; Growth Rate (Fibroblast; 6 h, replicate number 2): 0.69; Growth Rate (Fibroblast; 12 h, replicate number 1): 0.36; Growth Rate (Fibroblast; 18 h, replicate number 1): 0.37; Growth Rate (U2OS; 0 h, replicate number 1): 0.31"
Cc1ccc2c(N)c(C(=O)NC3CCc4cc(N5CC6CCC(C5)N6)ccc4C3)sc2n1.O=CO (centres undefined),–,0.09,-0.26,0.01,-0.21,-0.55,-0.64,-0.55,-0.39,-0.46,-0.32,-0.37,0.37,0.47,0.12,0.35,0.15,0.08,-0.17,–,"Growth Rate (Fibroblast; 6 h, replicate number 2): -0.1; Growth Rate (Fibroblast; 12 h, replicate number 1): 0.09; Growth Rate (Fibroblast; 18 h, replicate number 1): 0.05; Growth Rate (HEK-293T; 12 h, replicate number 1): -0.47; Growth Rate (U2OS; 0 h, replicate number 2): 0.59; Growth Rate (U2OS; 24 h, replicate number 1): 0.24"
CCS(=O)(=O)Nc1cccc(Oc2cncc(Nc3ccc(I)cc3F)c2C(N)=O)c1,–,0.99,–,–,–,0.77,–,0.71,0.77,0.58,0.74,0.69,0.62,–,0.76,0.92,–,0.98,–,0.82,"Growth Rate (HEK-293T; 12 h, replicate number 1): 0.82; Growth Rate (U2OS; 6 h, replicate number 1): 0.71; Growth Rate (U2OS; 24 h, replicate number 1): 0.84"
NC(=O)C1CCCc2c1[nH]c1ccc(Cl)cc21 (centres undefined),0.51,–,–,–,0.88,–,0.22,0.53,–,0.66,–,0.79,–,1,–,0.88,–,0.96,0.9,0.75,"Growth Rate (HEK-293T; 0 h, replicate number 2): -0.98; Growth Rate (U2OS; 0 h, replicate number 1): 0.85; Growth Rate (U2OS; 0 h, replicate number 2): 0.68; Growth Rate (U2OS; 6 h, replicate number 1): 0.7; Growth Rate (U2OS; 24 h, replicate number 1): 1"
Cc1cc(OCc2nc3ccccc3s2)ccc1NC(=O)Nc1ccc(Cl)c(Cl)c1,-0.81,–,0.94,–,0.92,–,–,0.92,–,–,–,–,–,–,–,–,0.98,–,0.94,0.1,"Growth Rate (Fibroblast; 0 h, replicate number 1): -1; Growth Rate (HEK-293T; 0 h, replicate number 2): -0.01"
CC(C)(O)CNC(=O)N1C(=O)N(c2cccc(C(F)(F)F)c2)C2=C(C(=O)CC2)[C@H]1c1ccc(C#N)cc1,0.22,–,0.82,–,0.97,–,–,0.98,0.94,1,0.94,–,–,0.56,0.96,0.85,–,–,–,-0.47,"Growth Rate (U2OS; 0 h, replicate number 1): 0.26; Growth Rate (U2OS; 6 h, replicate number 1): 0.67; Growth Rate (U2OS; 24 h, replicate number 1): 0.86"
CC[C@H](Nc1ncnc2[nH]cnc12)c1nc2cccc(F)c2c(=O)n1-c1ccccc1 [IDELALISIB],-0.51,–,0.95,0.92,–,0.29,-0.34,0.12,0.31,0.29,0.38,0.36,0.92,–,–,–,–,0.94,0.49,–,"Growth Rate (Fibroblast; 0 h, replicate number 1): 0.15; Growth Rate (Fibroblast; 6 h, replicate number 2): 0.25; Growth Rate (HEK-293T; 12 h, replicate number 1): 0.62"
O=C(O)CNC(=O)c1c(O)c2ccccc2n(Cc2ccccc2)c1=O,0.56,–,0.94,–,–,–,–,0.91,–,0.99,–,0.93,0.74,0.92,0.94,0.86,0.9,0.97,0.68,-0.08,"Growth Rate (Fibroblast; 6 h, replicate number 2): 0.61; Growth Rate (Fibroblast; 12 h, replicate number 1): 0.75; Growth Rate (HEK-293T; 0 h, replicate number 2): -0.1; Growth Rate (U2OS; 0 h, replicate number 1): 0.29; Growth Rate (U2OS; 0 h, replicate number 2): 0.34"
Cc1cc(-c2nc(-c3ccc(OC(F)(F)F)cc3)no2)nn1Cc1ccnc(N2CCN(C3CC3)CC2)c1,–,0.9,0.2,0.26,0.5,0.47,-0.22,0.08,0.25,0.18,0.37,0.3,–,0.94,0.51,–,0.61,0.71,0.36,–,"Growth Rate (Fibroblast; 0 h, replicate number 1): -1; Growth Rate (Fibroblast; 12 h, replicate number 1): 0.3; Growth Rate (Fibroblast; 18 h, replicate number 1): 0.22; Growth Rate (HEK-293T; 12 h, replicate number 1): 0.32; Growth Rate (U2OS; 24 h, replicate number 1): 0.88"
COc1cc(C(=O)NC2CCN(C)CC2)ccc1Nc1ncc(C(F)(F)F)c(NCc2ccc(C)cc2N(C)S(C)(=O)=O)n1.O=CO.O=CO,–,-0.43,-0.55,-0.58,-0.54,-0.77,-0.51,-0.48,-0.54,-0.33,-0.45,-0.34,-0.57,0.11,-0.43,-0.12,-0.46,-0.53,-0.43,–,"Growth Rate (Fibroblast; 6 h, replicate number 2): -0.42; Growth Rate (Fibroblast; 12 h, replicate number 1): -0.37; Growth Rate (Fibroblast; 18 h, replicate number 1): -0.52; Growth Rate (HEK-293T; 0 h, replicate number 2): -1; Growth Rate (HEK-293T; 12 h, replicate number 1): -0.63; Growth Rate (U2OS; 0 h, replicate number 1): -0.98; Growth Rate (U2OS; 0 h, replicate number 2): -0.24; Growth Rate (U2OS; 6 h, replicate number 1): 0.97; Growth Rate (U2OS; 24 h, replicate number 1): -0.27"

# From ChEMBL document CHEMBL5303304, “EUbOPEN Chemogenomics Library - IncuCyte” (2023)
